Test results reported in patent US12410448B2, “Nanoparticle compositions containing sugar functionalized nucleic acid carriers” (TIBA Biotech LLC, priority 2021, dated 2025).

Experiments:
[1] = Encapsulation efficiency by Ribogreen assay; type: physicochemical; conditions: nanoparticle composition with SEAP mRNA, formulated at pH 5; dendron:DOPE:cholesterol:DMG-PEG2k 1:0.6:2.88:0.1
Description: As used herein, “encapsulated” can refer to a nanoparticle that provides an active agent or therapeutic agent with full encapsulation, partial encapsulation, or both. In an embodiment, the therapeutic agent is a nucleic acid (as a non-limiting example, a messenger RNA), In a preferred embodiment, the nucleic acid is fully encapsulated in the nanoparticle. In the context of nucleic acid therapeutic agents, full encapsulation may be determined by a Ribogreen® assay. RiboGreen® is an ultra-sensitive fluorescent nucleic acid stain for quantitating oligonucleotides and single-stranded DNA or RNA in solution (available from Thermo Fisher Scientific-US).
Nanoparticles containing the deoxy sugar-modified polyesteramine dendron (e.g PE Dendron_G2-2 deoxyGlucose-A1-Ricinoleic):DOPE:cholesterol:DMG-PEG2k at molar ratios of 1:0.6:2.88:0.1 were formulated using NanoAssembir Benchtop (Precision NanoSystems Inc, Vancouver, BC, Canada)). RNA was diluted with DNase/RNase-Free, endotoxin free distilled water and sterile citrate buffer to a final desired pH. […] Encapsulation efficiency was measured to be 95% for the nanoparticle composition containing PE Dendron_G2-2 deoxyGlucose-A1-Ricinoleic and SEAP mRNA (formulated at pH 5) using Ribogreen® assay (Geall et al. 10.1073/pnas.1209367109 which is incorporated herein by reference as if fully set forth). […]

[2] = Hydrodynamic size measurement by dynamic light scattering (DLS); type: physicochemical; conditions: nanoparticle composition with SEAP mRNA
BHK cells = assay: In vitro SEAP production; type: cell-based
Method: To test the ability of the nanoparticles formulated with different deoxy sugar based dendrons to express SEAP in vitro, BHK cells were treated with nanoparticles. Each well of a 12 well dish of BHKs was treated with 20 μL (approximately 1 μg) of each formulation product diluted into a final volume of 500 μL with a 1:1 Optimem:PBS mix. The nontreated wells had 500 μL of 50/50 PBS/OptiMEM. Twenty four hours post-treatment or transfection, conditioned media from each culture was collected. The amount of SEAP was quantified using the Invitrogen NovaBright™ Phospha-Light™ EXP Assay kits for SEAP detection according to the manufacturer's protocol. The amount of SEAP in the media samples are reported in Arbitrary Units (A.U.) as measured in a BioTek Synergy HTX microplate reader. Error bars are ±S.E.M. Referring to FIG. 4a, it was observed that the SEAP amount was higher with the PE Dendron_G2-2 deoxyGlucose-A1-Ricinoleic than the other regioisomers: PE Dendron_G2-1 deoxyGlucose-A1-Ricinoleic and PE Dendron_G2-6 deoxyGlucose-A1-Ricinoleic. […]

SEAP expression = assay: In vivo SEAP production, deoxy sugar dendrons; parameters: species or system mice; conditions: FIG. 4 legend; SEAP mRNA nanoparticles
Method: To test formulations of different monosaccharides based dendrons, the secreted embryonic alkaline phosphatase SEAP reporter system was used. For in vivo tests, mice were injected with nanoparticles at a dose of 5 ug of SEAP mRNA, and 16 hrs later, serum was collected from the mice. The amount of […] using the Invitrogen NovaBright™ Phospha-Light™ EXP Assay kits for SEAP detection according to the manufacturer's protocol. The amount of SEAP in the mouse serum samples are reported in Arbitrary Units (A.U.) as measured in a BioTek Synergy HTX microplate reader. Error bars are±S.E.M. Referring to FIG. 4b, it was observed that the SEAP amount was higher with the PE Dendron_G2-1 deoxyGlucose-A1-Ricinoleic than the other regioisomers: PE Dendron_G2-2 deoxyGlucose-A1-Ricinoleic and PE Dendron_G2-6 deoxyGlucose-A1-Ricinoleic. Referring to FIG. 5b, it was also observed that the SEAP amount was higher with the PE Dendron_G2-2 deoxyGlucose-A5-Ricinoleic than PE Dendron_G2-2 deoxyGlucose-A1-Ricinoleic indicating pKa of the ionizable delivery molecules influences the ability of the nanoparticles to deliver functionally active RNA.

SARS-CoV-2 Spike protein = assay: COVID-19 Spike trimer direct serum ELISA after vaccination; type: in vivo

CCCCCC[C@H](O)C/C=C\CCCCCCCC(=O)NCCCN(C)CCCNC(=O)OCC(C)(COC(=O)NCCCN(C)CCCNC(=O)CCCCCCC/C=C\C[C@@H](O)CCCCCC)C(=O)OCC(C)(COC(=O)C(C)(COC(=O)NCCCN(C)CCCNC(=O)CCCCCCC/C=C\C[C@@H](O)CCCCCC)COC(=O)NCCCN(C)CCCNC(=O)CCCCCCC/C=C\C[C@@H](O)CCCCCC)C(=O)OCc1cn([C@H]2C(O)O[C@H](CO)[C@@H](O)[C@@H]2O)nn1 (some centres unmarked)
Encapsulation efficiency [1]: 95% | Nanoparticle size at strongest intensity (Z average, DLS) [2]: 113.3 nm·days | Polydispersity index of size distribution ([2]; single peak): low | SEAP amount in conditioned media (BHK cells; FIG. 4a, BHK cells, 24 h, about 1 μg, compared with regioisomers 1 deoxyGlucose-A1 and 6 deoxyGlucose-A1): higher | SEAP protein production in vitro (BHK cells; FIG. 4 legend, SEAP mRNA nanoparticles): resulted in SEAP protein production | SEAP protein production in vivo (SEAP expression): resulted in SEAP protein production | Immunogenicity upon IM administration (anti-Spike IgG titer) (SARS-CoV-2 Spike protein; compared with Dlin-MC3-DMA control): superior | Endpoint dilution titer of serum anti-Spike IgG (SARS-CoV-2 Spike protein; compared with PE Dendron_G2-2 deoxyGlucose-A5-Ricinoleic): higher
